{"source": "paper PMC11864979", "about": "“First-in-class ultralong-target-residence-time p38α inhibitors as a mitosis-targeted therapy for colorectal cancer” (Nature Cancer, 2025)", "test_in_all_cases": "selectivity profiling in a panel of 340 wild-type kinases (Reaction Biology Europe)", "type_in_all_cases": "binding", "key": {"[1]": {"molecular_target": "T1, 340 wild-type kinases (Homo sapiens, UniProt P06493)", "T1 construct": "purchased Reaction Biology Europe", "T1 sequence (P06493 whole entry)": "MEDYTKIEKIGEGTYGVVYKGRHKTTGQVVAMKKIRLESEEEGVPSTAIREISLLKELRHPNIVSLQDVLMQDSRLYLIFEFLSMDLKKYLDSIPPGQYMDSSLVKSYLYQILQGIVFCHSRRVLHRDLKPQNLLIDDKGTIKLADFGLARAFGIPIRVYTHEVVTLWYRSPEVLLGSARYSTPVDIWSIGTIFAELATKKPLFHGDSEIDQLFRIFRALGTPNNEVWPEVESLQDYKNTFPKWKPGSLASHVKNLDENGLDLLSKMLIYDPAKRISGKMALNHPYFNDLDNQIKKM"}, "[2]": {"molecular_target": "T2, 340 wild-type kinases (Homo sapiens, UniProt O15146)", "T2 construct": "purchased Reaction Biology Europe", "T2 sequence (O15146 24-869)": "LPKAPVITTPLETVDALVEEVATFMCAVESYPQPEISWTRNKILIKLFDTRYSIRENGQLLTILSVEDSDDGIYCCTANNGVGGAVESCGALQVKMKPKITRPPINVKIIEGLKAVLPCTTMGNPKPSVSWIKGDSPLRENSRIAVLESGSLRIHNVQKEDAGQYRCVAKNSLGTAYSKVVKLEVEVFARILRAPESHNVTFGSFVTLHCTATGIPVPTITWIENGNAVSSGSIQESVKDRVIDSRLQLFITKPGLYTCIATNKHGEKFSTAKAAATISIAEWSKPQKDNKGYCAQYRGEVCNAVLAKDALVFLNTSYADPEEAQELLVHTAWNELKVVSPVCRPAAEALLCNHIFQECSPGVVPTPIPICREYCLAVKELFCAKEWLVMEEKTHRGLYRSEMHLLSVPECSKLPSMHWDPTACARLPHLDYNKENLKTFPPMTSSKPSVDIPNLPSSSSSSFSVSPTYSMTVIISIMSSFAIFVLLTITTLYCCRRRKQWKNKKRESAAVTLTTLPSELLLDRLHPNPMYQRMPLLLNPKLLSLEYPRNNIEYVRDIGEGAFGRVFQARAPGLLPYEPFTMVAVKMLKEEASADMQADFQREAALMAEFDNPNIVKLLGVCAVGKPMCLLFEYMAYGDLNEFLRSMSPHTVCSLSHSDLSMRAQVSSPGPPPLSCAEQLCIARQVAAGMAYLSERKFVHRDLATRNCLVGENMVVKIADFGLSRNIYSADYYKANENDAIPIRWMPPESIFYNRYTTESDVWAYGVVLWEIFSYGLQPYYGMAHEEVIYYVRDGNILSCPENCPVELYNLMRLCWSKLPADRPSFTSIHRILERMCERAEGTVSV"}, "[3]": {"molecular_target": "T3, 340 wild-type kinases (Homo sapiens, UniProt P54756)", "T3 construct": "purchased Reaction Biology Europe", "T3 sequence (P54756 25-1037)": "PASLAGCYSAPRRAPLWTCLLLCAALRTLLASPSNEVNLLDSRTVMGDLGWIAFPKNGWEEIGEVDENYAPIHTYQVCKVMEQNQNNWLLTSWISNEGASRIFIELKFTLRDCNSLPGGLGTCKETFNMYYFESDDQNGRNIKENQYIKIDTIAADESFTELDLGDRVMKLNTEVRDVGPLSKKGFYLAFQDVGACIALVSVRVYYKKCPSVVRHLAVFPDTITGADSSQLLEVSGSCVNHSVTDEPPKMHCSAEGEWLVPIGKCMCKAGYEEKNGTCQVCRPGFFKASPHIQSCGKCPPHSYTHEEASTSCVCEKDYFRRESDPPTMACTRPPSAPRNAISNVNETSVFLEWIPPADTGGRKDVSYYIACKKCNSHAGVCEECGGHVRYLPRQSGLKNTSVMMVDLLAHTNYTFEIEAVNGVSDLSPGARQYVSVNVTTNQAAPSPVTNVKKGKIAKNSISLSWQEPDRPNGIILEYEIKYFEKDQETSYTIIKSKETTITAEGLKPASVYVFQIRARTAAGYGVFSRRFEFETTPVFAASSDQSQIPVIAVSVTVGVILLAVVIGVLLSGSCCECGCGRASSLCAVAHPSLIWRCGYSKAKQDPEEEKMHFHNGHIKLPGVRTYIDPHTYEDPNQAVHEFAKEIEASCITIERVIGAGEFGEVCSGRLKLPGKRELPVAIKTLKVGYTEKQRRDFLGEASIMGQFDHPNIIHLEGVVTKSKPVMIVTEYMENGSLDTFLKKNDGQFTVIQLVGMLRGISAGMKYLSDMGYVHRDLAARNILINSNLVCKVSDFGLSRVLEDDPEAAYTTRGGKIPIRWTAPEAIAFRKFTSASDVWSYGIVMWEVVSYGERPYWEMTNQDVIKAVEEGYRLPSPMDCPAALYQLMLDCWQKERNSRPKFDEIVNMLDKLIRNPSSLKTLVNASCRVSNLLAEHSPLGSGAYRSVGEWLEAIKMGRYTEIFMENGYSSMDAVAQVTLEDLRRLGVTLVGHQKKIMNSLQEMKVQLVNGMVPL"}, "[4]": {"molecular_target": "T4, 340 wild-type kinases (Homo sapiens, UniProt O75582)", "T4 construct": "purchased Reaction Biology Europe", "T4 sequence (O75582 whole entry)": "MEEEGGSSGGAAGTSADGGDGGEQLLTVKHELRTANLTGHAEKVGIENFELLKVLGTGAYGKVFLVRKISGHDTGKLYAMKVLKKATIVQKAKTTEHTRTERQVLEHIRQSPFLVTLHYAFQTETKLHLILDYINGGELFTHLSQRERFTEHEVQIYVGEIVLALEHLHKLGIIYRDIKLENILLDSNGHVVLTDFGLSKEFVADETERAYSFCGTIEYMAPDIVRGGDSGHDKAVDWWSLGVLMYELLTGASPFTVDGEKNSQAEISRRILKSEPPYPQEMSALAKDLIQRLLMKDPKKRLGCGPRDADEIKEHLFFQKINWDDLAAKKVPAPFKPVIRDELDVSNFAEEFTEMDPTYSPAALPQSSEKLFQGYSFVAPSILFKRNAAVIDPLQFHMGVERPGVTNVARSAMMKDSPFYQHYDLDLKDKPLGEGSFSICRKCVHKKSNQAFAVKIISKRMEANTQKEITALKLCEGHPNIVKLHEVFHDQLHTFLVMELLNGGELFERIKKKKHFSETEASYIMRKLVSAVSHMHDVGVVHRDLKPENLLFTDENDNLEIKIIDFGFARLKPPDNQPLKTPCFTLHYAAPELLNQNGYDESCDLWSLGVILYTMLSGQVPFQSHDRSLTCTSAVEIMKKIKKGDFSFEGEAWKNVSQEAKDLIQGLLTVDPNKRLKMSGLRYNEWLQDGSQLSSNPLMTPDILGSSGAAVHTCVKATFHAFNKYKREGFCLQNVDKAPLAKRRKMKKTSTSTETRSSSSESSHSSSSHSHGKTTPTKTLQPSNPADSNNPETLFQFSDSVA"}, "[5]": {"molecular_target": "T5, 340 wild-type kinases (Homo sapiens, UniProt Q6XUX3)", "T5 construct": "purchased Reaction Biology Europe", "T5 sequence (Q6XUX3 1-929)": "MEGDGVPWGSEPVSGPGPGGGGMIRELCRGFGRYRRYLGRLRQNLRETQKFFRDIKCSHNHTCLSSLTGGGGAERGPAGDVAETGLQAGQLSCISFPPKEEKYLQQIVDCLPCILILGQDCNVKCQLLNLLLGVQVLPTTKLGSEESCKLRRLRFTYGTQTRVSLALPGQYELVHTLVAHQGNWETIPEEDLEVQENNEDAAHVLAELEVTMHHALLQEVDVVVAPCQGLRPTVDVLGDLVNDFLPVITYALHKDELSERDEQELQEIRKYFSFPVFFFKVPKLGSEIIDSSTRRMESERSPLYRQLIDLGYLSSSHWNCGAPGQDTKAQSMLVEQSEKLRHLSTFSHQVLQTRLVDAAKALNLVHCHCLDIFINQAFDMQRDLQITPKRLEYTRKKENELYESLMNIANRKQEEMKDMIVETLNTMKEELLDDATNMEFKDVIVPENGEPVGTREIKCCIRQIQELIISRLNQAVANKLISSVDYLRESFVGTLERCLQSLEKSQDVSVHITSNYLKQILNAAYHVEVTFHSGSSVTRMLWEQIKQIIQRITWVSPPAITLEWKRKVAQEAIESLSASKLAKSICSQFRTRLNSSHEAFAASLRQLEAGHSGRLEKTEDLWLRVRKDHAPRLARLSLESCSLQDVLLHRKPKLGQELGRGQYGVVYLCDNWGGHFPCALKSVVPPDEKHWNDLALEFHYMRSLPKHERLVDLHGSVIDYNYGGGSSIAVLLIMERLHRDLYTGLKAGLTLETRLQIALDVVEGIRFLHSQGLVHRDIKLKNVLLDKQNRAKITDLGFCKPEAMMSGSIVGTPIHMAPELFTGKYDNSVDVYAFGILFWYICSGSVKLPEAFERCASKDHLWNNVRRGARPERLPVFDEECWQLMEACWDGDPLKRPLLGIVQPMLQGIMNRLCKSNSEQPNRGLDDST"}, "[6]": {"molecular_target": "T6, 340 wild-type kinases (Homo sapiens, UniProt Q05397)", "T6 construct": "purchased Reaction Biology Europe", "T6 sequence (Q05397 whole entry)": "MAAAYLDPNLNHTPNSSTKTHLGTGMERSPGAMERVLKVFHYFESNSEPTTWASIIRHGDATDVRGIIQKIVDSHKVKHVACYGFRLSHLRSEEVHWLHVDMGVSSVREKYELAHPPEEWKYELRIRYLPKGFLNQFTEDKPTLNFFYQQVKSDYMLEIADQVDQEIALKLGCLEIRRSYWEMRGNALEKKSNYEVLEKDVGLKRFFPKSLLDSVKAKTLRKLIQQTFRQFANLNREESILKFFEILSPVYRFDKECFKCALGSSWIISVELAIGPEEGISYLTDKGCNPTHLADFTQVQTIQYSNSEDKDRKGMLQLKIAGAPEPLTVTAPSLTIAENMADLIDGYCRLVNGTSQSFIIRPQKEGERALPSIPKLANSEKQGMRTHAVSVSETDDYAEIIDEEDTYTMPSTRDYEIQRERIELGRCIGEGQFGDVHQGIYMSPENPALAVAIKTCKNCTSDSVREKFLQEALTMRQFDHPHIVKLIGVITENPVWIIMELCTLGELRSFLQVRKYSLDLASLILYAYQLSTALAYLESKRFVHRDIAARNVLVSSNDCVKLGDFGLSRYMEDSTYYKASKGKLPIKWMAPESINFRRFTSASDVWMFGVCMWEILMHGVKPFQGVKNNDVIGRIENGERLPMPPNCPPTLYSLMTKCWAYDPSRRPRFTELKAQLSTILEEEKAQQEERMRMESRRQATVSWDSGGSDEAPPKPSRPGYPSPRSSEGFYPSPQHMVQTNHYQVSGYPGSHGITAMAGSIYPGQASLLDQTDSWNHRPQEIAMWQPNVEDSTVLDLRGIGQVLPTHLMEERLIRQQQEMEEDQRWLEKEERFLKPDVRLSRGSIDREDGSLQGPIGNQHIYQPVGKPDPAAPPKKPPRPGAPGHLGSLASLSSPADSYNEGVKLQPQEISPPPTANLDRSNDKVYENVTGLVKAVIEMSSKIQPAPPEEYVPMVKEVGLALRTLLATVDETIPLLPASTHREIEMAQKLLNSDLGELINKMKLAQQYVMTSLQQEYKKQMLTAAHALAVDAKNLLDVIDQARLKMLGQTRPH"}, "[7]": {"molecular_target": "T7, 340 wild-type kinases (Homo sapiens, UniProt P43405)", "T7 construct": "purchased Reaction Biology Europe"}, "[8]": {"molecular_target": "T8, 340 wild-type kinases (Homo sapiens, UniProt P31749)", "T8 construct": "purchased Reaction Biology Europe", "T8 sequence (P31749 whole entry)": "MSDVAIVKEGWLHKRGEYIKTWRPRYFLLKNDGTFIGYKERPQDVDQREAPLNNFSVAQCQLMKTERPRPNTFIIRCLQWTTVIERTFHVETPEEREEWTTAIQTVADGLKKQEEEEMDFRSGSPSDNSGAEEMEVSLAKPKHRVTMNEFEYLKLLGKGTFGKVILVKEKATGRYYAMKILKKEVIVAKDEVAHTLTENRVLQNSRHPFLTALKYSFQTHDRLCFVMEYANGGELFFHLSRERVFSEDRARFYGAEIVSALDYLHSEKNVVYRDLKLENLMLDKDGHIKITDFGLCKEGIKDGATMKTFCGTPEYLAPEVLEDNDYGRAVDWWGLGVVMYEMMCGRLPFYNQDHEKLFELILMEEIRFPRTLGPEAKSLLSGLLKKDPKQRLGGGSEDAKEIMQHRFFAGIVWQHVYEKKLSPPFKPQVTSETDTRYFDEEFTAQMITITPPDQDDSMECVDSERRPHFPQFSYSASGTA"}, "[9]": {"molecular_target": "T9, 340 wild-type kinases (Homo sapiens, UniProt P11362)", "T9 construct": "purchased Reaction Biology Europe", "T9 sequence (P11362 22-822)": "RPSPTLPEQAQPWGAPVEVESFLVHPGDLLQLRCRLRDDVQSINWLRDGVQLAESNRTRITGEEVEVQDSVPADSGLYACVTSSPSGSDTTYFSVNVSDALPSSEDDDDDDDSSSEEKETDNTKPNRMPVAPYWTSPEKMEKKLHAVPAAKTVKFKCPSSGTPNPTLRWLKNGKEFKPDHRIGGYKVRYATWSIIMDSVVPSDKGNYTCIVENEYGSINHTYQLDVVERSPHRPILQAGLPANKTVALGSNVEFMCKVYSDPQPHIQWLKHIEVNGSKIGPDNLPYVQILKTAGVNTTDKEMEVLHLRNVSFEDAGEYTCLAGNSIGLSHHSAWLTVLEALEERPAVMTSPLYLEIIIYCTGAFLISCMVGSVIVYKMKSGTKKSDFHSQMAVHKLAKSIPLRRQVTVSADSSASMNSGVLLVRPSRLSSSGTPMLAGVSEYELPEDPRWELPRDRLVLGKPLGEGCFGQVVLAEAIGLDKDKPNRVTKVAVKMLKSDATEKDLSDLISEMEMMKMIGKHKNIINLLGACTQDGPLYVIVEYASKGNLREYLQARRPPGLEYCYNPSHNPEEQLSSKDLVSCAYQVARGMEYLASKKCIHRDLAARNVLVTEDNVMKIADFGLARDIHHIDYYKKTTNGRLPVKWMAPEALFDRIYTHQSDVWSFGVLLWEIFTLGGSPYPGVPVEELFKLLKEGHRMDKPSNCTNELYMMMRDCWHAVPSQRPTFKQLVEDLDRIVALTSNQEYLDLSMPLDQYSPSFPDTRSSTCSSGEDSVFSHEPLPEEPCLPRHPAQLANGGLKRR"}}, "note": "Read-outs that look alike come from different tables or passages of the source.", "data": [{"smiles": "CNC(=O)c1ccc2c(c1)C(=O)c1ccc(Nc3ccc(F)c(NC(=O)C4CC4)c3)cc1CC2", "note": "[Compound 2015]", "values": [{"measurement": "remaining activity at 0.2 µM", "setting": "[1]; 0.2 µM 2015, read-out: CDK1/CycA2 residual activity", "value": 99.4, "unit": "%"}, {"measurement": "remaining activity at 0.2 µM", "setting": "[1]; 0.2 µM 2015, read-out: CDK1/CycB1 residual activity", "value": 92.8, "unit": "%"}, {"measurement": "remaining activity at 0.2 µM", "setting": "[1]; 0.2 µM 2015, read-out: CDK1/CycE1 residual activity", "value": 100, "unit": "%"}, {"measurement": "remaining activity at 1 µM", "setting": "[1]; 1 µM 2015, read-out: CDK1/CycA2 residual activity", "value": 101, "unit": "%"}, {"measurement": "remaining activity at 1 µM", "setting": "[1]; 1 µM 2015, read-out: CDK1/CycB1 residual activity", "value": 83.7, "unit": "%"}, {"measurement": "remaining activity at 1 µM", "setting": "[1]; 1 µM 2015, read-out: CDK1/CycE1 residual activity", "value": 90.1, "unit": "%"}, {"measurement": "remaining activity at 0.2 µM", "setting": "[1]; CDK1/CycA2, 0.2 µM, read-out: residual activity", "value": 99.3, "unit": "%"}, {"measurement": "remaining activity at 1 µM", "setting": "[1]; CDK1/CycA2, 1 µM, read-out: residual activity", "value": 101, "unit": "%"}, {"measurement": "remaining activity at 0.2 µM", "setting": "[1]; CDK1/CycB1, 0.2 µM, read-out: residual activity", "value": 92.8, "unit": "%"}, {"measurement": "remaining activity at 1 µM", "setting": "[1]; CDK1/CycB1, 1 µM, read-out: residual activity", "value": 83.7, "unit": "%"}, {"measurement": "remaining activity at 0.2 µM", "setting": "[1]; CDK1/CycE1, 0.2 µM, read-out: residual activity", "value": 100, "unit": "%"}, {"measurement": "remaining activity at 1 µM", "setting": "[1]; CDK1/CycE1, 1 µM, read-out: residual activity", "value": 90.1, "unit": "%"}, {"measurement": "remaining activity at 0.2 µM", "setting": "[2]; 0.2 µM 2015, read-out: MUSK residual activity", "value": 87.5, "unit": "%"}, {"measurement": "remaining activity at 1 µM", "setting": "[2]; 1 µM 2015, read-out: MUSK residual activity", "value": 87.3, "unit": "%"}, {"measurement": "remaining activity at 0.2 µM", "setting": "[2]; MUSK, 0.2 µM, read-out: residual activity", "value": 87.5, "unit": "%"}, {"measurement": "remaining activity at 1 µM", "setting": "[2]; MUSK, 1 µM, read-out: residual activity", "value": 87.3, "unit": "%"}, {"measurement": "remaining activity at 0.2 µM", "setting": "[3]; 0.2 µM 2015, read-out: EPHA5 residual activity", "value": 110, "unit": "%"}, {"measurement": "remaining activity at 1 µM", "setting": "[3]; 1 µM 2015, read-out: EPHA5 residual activity", "value": 98.5, "unit": "%"}, {"measurement": "remaining activity at 0.2 µM", "setting": "[3]; EPHA5, 0.2 µM, read-out: residual activity", "value": 110, "unit": "%"}, {"measurement": "remaining activity at 1 µM", "setting": "[3]; EPHA5, 1 µM, read-out: residual activity", "value": 98.5, "unit": "%"}, {"measurement": "remaining activity at 0.2 µM", "setting": "[4]; 0.2 µM 2015, read-out: RPS6KA5 residual activity", "value": 93.6, "unit": "%"}, {"measurement": "remaining activity at 0.2 µM", "setting": "[4]; RPS6KA5, 0.2 µM, read-out: residual activity", "value": 93.6, "unit": "%"}, {"measurement": "remaining activity at 1 µM", "setting": "[4]; RPS6KA5, 1 µM, read-out: residual activity", "value": 90.2, "unit": "%"}, {"measurement": "remaining activity at 0.2 µM", "setting": "[5]; 0.2 µM 2015, read-out: RIPK5 residual activity", "value": 92.4, "unit": "%"}, {"measurement": "remaining activity at 1 µM", "setting": "[5]; 1 µM 2015, read-out: RIPK5 residual activity", "value": 88.1, "unit": "%"}, {"measurement": "remaining activity at 0.2 µM", "setting": "[5]; RIPK5, 0.2 µM, read-out: residual activity", "value": 92.4, "unit": "%"}, {"measurement": "remaining activity at 1 µM", "setting": "[5]; RIPK5, 1 µM, read-out: residual activity", "value": 88.1, "unit": "%"}, {"measurement": "remaining activity at 0.2 µM", "setting": "[6]; 0.2 µM 2015, read-out: FAK residual activity", "value": 121, "unit": "%"}, {"measurement": "remaining activity at 1 µM", "setting": "[6]; 1 µM 2015, read-out: FAK residual activity", "value": 115, "unit": "%"}, {"measurement": "remaining activity at 0.2 µM", "setting": "[6]; FAK, 0.2 µM, read-out: residual activity", "value": 121, "unit": "%"}, {"measurement": "remaining activity at 1 µM", "setting": "[6]; FAK, 1 µM, read-out: residual activity", "value": 115, "unit": "%"}, {"measurement": "remaining activity at 0.2 µM", "setting": "[7]; 0.2 µM 2015, read-out: SYK residual activity", "value": 95.8, "unit": "%"}, {"measurement": "remaining activity at 1 µM", "setting": "[7]; 1 µM 2015, read-out: SYK residual activity", "value": 85.6, "unit": "%"}, {"measurement": "remaining activity at 0.2 µM", "setting": "[7]; SYK, 0.2 µM, read-out: residual activity", "value": 95.8, "unit": "%"}, {"measurement": "remaining activity at 1 µM", "setting": "[7]; SYK, 1 µM, read-out: residual activity", "value": 85.6, "unit": "%"}, {"measurement": "remaining activity at 0.2 µM", "setting": "[8]; 0.2 µM 2015, read-out: AKT1 residual activity", "value": 100, "unit": "%"}, {"measurement": "remaining activity at 1 µM", "setting": "[8]; 1 µM 2015, read-out: AKT1 residual activity", "value": 98.7, "unit": "%"}, {"measurement": "remaining activity at 0.2 µM", "setting": "[8]; AKT1, 0.2 µM, read-out: residual activity", "value": 100, "unit": "%"}, {"measurement": "remaining activity at 1 µM", "setting": "[8]; AKT1, 1 µM, read-out: residual activity", "value": 98.7, "unit": "%"}, {"measurement": "remaining activity at 0.2 µM", "setting": "[9]; 0.2 µM 2015, read-out: FGFR1 residual activity", "value": 105, "unit": "%"}, {"measurement": "remaining activity at 1 µM", "setting": "[9]; 1 µM 2015, read-out: FGFR1 residual activity", "value": 111, "unit": "%"}, {"measurement": "remaining activity at 0.2 µM", "setting": "[9]; FGFR1, 0.2 µM, read-out: residual activity", "value": 105, "unit": "%"}, {"measurement": "remaining activity at 1 µM", "setting": "[9]; FGFR1, 1 µM, read-out: residual activity", "value": 111, "unit": "%"}]}]}
